Results from patent US7465748B2, “Amide derivative” (Astellas Pharma Inc., priority 2003, dated 2008).
Where two headings read alike, the source gives them in different places.

Tests used:
HSV-1 strain WT-51 = experiment: Cutaneous HSV-1 infection mouse model; format: in vivo, HR-1 hairless mouse; conditions: 10 mg/kg twice a day for 5 days from 3 hours after infection, lesion score for 17 days
Description: Using a cutaneous HSV-1 infection mouse model prepared in accordance with the method of H. Machida et al. (Antiviral Res., 1992, 17, 133-143), in vivo activity of the compounds of the invention was tested. The skin of each HR-1 hairless mouse [female, 7 weeks of age] was scratched lengthwise and breadthwise several times using a needle and a virus suspension (HSV-1 strain WT-51, 1.5×10^4 PFU/15 μl) was droped to the scarified region for infection, while anesthetized with diethyl ether
Tested compounds were administered orally as a methyl cellulose suspension, except for compounds marked with asterisk which were dissolved in 20% Cremophor EL (Nakarai Tesuku)/20% polyethylene glycol (PEG) 400/60% H2O solution, starting at 3 hours after the infection, and then at a dose of 10 mg/kg twice a day for 5 days. The symptom of the skin lesion caused by HSV-1 infection were classified in the following scores for 17 days:
Score 0: no signs of infection.
Score 1: localized, barely perceptible small vesicles.
Score 2: slight vesicle spread.
Score 3: large patches of vesicles formed.
Score 4: zosteriform vesicles.
Score 5: large patches of ulcers formed.
Score 6: zosteriform with severe large ulcers.
Score 7: hind limb paralysis or death.
The AUC value was calculated from each group's mean disease score, and the disease inhibitory rate of the group administered with each test compound to the placebo group was calculated using the AUC.

VZV (strain CaQu) = experiment: Anti-VZV activity assay (plaque reduction in HEF cells); format: cell-based, varicella zoster virus (VZV); conditions: human embryonic fibroblast (HEF) cells infected with VZV strain CaQu, plaque count after 3 to 4 days
Description: This assay was carried out in accordance with the method described by Shigeta S. (The Journal of Infectious Diseases, 147, 3, 576-584 (1983). Specifically, human embryonic fibroblast (HEF) cells were inoculated in a 96-well microtiter plate, using a growth culture medium [Eagle MEM (Nissui) supplemented with 10% (v/v) fetal bovine serum (FBS; Sigma)], for culturing in 5% CO2 at 37° C. for 4 days until a monolayer was formed. After washing the cells with a maintenance medium, the cells were inoculated with 100 μl/well of VZV (strain CaQu) which had been diluted to 20 to 30 pfu/100 μl with the maintenance medium (Eagle MEM supplemented with 2% FBS). The plate was centrifuged at 2,000 rpm for 20 minutes at room temperature and then incubated at 37° C. for 3 hours in an atmosphere of 5% CO2 to infect with VZV. After washing three times with the maintenance medium, 100 μl of each test drug diluted to an appropriate concentration with the maintenance medium was added to each well. After culturing the cells at 37° C. for 3 to 4 days in an atmosphere of 5% CO2, the cells were fixed with 100 μl/well of 10% formalin/PBS for 2 to 3 hours. […] After discarding the fixing solution and culture supernatant and subsequently washing the plate with water, a staining solution (0.025% Crystal Violet) was added at 50 μl/well for staining for 2 to 3 minutes, and then, the plate was washed with water and dried at 37° C. Cellular death is induced in the HEF cells infected with VZV, so that plaques of the dead cells are formed in the monolayer of the HEF cells.

HSV-1 (strain KOS) = experiment: Anti-HSV-1 activity assay (MTT, MRC-5 cells); format: cell-based; conditions: HSV-1 strain KOS 50 TCID50/100 μl, 5 days culture, read-out: EC50 value (suppression of cellular death of MRC-5 cells via HSV-1 replication)
Description: 10,000 MRC-5 cells were inoculated and cultured in a 96-well microtiter plate, using the growth culture medium [Eagle MEM (Nissui) supplemented with 10% FBS] in 5% CO2 at 37° C. for 4 to 5 days until a monolayer was formed. After the cells were washed with the maintenance culture medium [Eagle MEM supplemented with 2% (v/v) FBS], 100 μl of the maintenance culture medium dissolving therein an appropriate concentration of a test reagent was added to each well. Immediately after the test drug was added, an HSV-1 (strain KOS) solution was inoculated at 50 TCID50 (50% tissue culture infectious dose)/100 μl. After the cells were cultured in 5% CO2 at 37° C. for 5 days, 20 μl of MTT solution [3-(4,5-dimethyl-2-thiazolyl)-2,5-diphenyl-2H-tetrazolium bromide; Sigma] (diluted with PBS to 7.5 mg/ml) was added to each well, for another 24-hour incubation. After the culture medium was discarded, 100 μl of a solvent (prepared by adding 10% Triton X 100 (v/v) and 0.4% hydrochloric acid to isopropanol) was added to each well, to solubilize the generated formazan. The absorbance at 540 nm or 690 nm was measured with a microplate reader. Based on the suppression ratio (%) of the cellular death of the MRC-5 cell via HSV-1 replication, the EC50 value of the test drug was calculated.

[1] = oral, methyl cellulose suspension
[2] = Human alphaherpesvirus 3, read-out: EC50 value (concentration to inhibit 50% of the plaques)
[3] = Human alphaherpesvirus 1, MRC5, 120 h
[4] = asterisk: oral, dissolved in 20% Cremophor EL/20% PEG 400/60% H2O solution

## COc1ccc(N(CC(=O)Nc2ccc(-c3csc(N)n3)cc2)C(=O)C2CCC(O)CC2)cc1 (stereo not drawn) [Comparative Compound C, reference compound]
HSV-1 strain WT-51; [1]
  Inhibitory activity (%) (disease inhibitory rate vs placebo from AUC of mean disease score): 44%

## O=C(CN(C(=O)C1CCS(=O)(=O)CC1)c1ccc2c(c1)CCC2)Nc1ccc(-c2cocn2)cc1 [Example 11, N-(2,3-dihydro-1H-inden-5-yl)-N-(2-{[4-(1,3-oxazol-4-yl)phenyl]amino)-2-oxoethyl)tetrahydro-2H-thiopyran-4-carboxamide 1,1-dioxide]
VZV (strain CaQu); [2]
  EC50: 60 nM
HSV-1 (strain KOS); [3]
  EC50: 40 nM

## Cc1cc(N(CC(=O)Nc2ccc(-c3ncon3)cc2)C(=O)C2CCS(=O)(=O)CC2)ccc1Cl [Example 37, N-(4-chloro-3-methylphenyl)-N-(2-{[4-(1,2,4-oxadiazol-3-yl)phenyl]amino)-2-oxoethyl)tetrahydro-2H-thiopyran-4-carboxamide 1,1-dioxide]
HSV-1 strain WT-51; [1]
  Inhibitory activity (%) (disease inhibitory rate vs placebo from AUC of mean disease score): 100%

## Cc1cccc(C)c1N(CC(=O)Nc1ccc(-c2ccccn2)cc1)C(=O)C1CCS(=O)(=O)CC1 [Example 125]
HSV-1 strain WT-51; [4]
  Inhibitory activity (%) (disease inhibitory rate vs placebo from AUC of mean disease score): *80%
VZV (strain CaQu); [2]
  EC50: 190 nM
HSV-1 (strain KOS); [3]
  EC50: 28 nM

## Nc1nc(-c2ccc(NC(=O)CN(C(=O)C3CCS(=O)(=O)CC3)c3ccc4c(c3)CCC4)cc2)cs1 [Comparative Compound D, reference compound]
HSV-1 strain WT-51; [1]
  Inhibitory activity (%) (disease inhibitory rate vs placebo from AUC of mean disease score): 43%

## COc1ccc(N(CC(=O)Nc2ccc(-c3csc(N)n3)cc2)C(=O)C2CCS(=O)(=O)CC2)cc1 [Comparative Compound B, reference compound]
HSV-1 strain WT-51; [1]
  Inhibitory activity (%) (disease inhibitory rate vs placebo from AUC of mean disease score): 2%

## Cc1cccc(C)c1N(CC(=O)Nc1ccc(-n2nccn2)cc1)C(=O)C1CCS(=O)(=O)CC1 [Example 98]
HSV-1 strain WT-51; [4]
  Inhibitory activity (%) (disease inhibitory rate vs placebo from AUC of mean disease score): *95%
VZV (strain CaQu); [2]
  EC50: 140 nM
HSV-1 (strain KOS); [3]
  EC50: 42 nM

## Cc1ccc(N(CC(=O)Nc2ccc(-c3cocn3)cc2)C(=O)C2CCS(=O)(=O)CC2)c(C)c1 [Example 6, N-(2,4-dimethylphenyl)-N-(2-{[4-(1,3-oxazol-4-yl)phenyl]amino}-2-oxoethyl)tetrahydro-2H-thiopyran-4-carboxamide 1,1-dioxide]
HSV-1 strain WT-51; [1]
  Inhibitory activity (%) (disease inhibitory rate vs placebo from AUC of mean disease score): 92%

## Cc1cccc(C)c1N(CC(=O)Nc1ccc(-c2ncon2)cc1)C(=O)C1CCS(=O)(=O)CC1 [Example 27, N-(2,6-dimethylphenyl)-N-(2-([4-<(1,2,4-oxadiazol-3-yl)phenyl]amino}-2-oxoethyl)tetrahydro-2H-thiopyran-4-carboxamide 1,1-dioxide]
VZV (strain CaQu); read-out: EC50 value (concentration to inhibit 50% of the plaques)
  EC50: 100 nM
HSV-1 (strain KOS)
  EC50: 60 nM

## Nc1nc(-c2ccc(NC(=O)CN(C(=O)c3ccc(F)cc3)c3ccc4ncsc4c3)cc2)cs1 [Comparative Compound A, reference compound]
HSV-1 strain WT-51; [1]
  Inhibitory activity (%) (disease inhibitory rate vs placebo from AUC of mean disease score): 38%

## Cc1ccc(N(CC(=O)Nc2ccc(-c3cocn3)cc2)C(=O)C2CCS(=O)(=O)CC2)cc1F [Example 14, N-(3-fluoro-4-methylphenyl)-N-(2-{[4-(1,3-oxazol-4-yl)phenyl]amino)-2-oxoethyl)tetrahydro-2H-thiopyran-4-carboxamide 1,1-dioxide]
HSV-1 strain WT-51; [1]
  Inhibitory activity (%) (disease inhibitory rate vs placebo from AUC of mean disease score): 98%

## Cc1cccc(C)c1N(CC(=O)Nc1ccc(-c2cocn2)cc1)C(=O)C1CCS(=O)(=O)CC1 [Example 1, N-(2,6-dimethylphenyl)-N-(2-([4-(1,3-oxazol-4-yl)phenyl]amino)-2-oxoethyl)tetrahydro-2H-thiopyran-4-carboxamide 1,1-dioxide]
HSV-1 strain WT-51; [4]
  Inhibitory activity (%) (disease inhibitory rate vs placebo from AUC of mean disease score): *93%
